In general, EC50 refers to the concentration needed to bring the measured effect to its halfway point. Usually inhibition stands for the share of the control response that was lost under treatment. Usually IC50 stands for the concentration at which inhibition is half-maximal.

Read-outs that look alike come from different tables or passages of the source.

This is an account of results in patent US20110269834A1 (priority 2008, published 2011).

In one data set the test system is SARS-CoV. In words: microbe, parasite or virus in culture. The format is cell-based, SARS-CoV Urbani strain.
For data set [1], the target named is T1, SARS-CoV PLpro (Severe acute respiratory syndrome coronavirus, UniProt P0C6X7). Briefly: biochemical. The note with it: read-out: percent inhibition of PLpro in primary screen.
For data set [2], the target named is T1, SARS-CoV PLpro. Briefly: biochemical. The note with it: for inhibition at 100 µM: read-out: inhibition of PLpro activity.
The target of a further data set is T2, hUCH-L1 (Homo sapiens, UniProt P09936).
T2 construct: purchased Biomol International
T2 sequence (P09936 1-223): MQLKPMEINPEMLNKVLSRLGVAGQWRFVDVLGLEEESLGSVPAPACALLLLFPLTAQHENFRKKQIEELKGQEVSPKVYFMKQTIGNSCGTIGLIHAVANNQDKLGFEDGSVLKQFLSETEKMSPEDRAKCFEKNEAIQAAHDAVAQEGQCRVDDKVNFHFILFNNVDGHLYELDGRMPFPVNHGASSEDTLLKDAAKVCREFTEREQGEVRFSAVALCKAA
Briefly: Inhibitor specificity assay, UCH-L1. The format is biochemical. Particulars: Table 6; assayed with 100 μM inhibitor, ubiquitin-AMC substrate.

A further data set has as its target T3, hUCH-L3 (Homo sapiens, UniProt P15374).
T3 construct: purchased Biomol International
T3 sequence (P15374 1-230): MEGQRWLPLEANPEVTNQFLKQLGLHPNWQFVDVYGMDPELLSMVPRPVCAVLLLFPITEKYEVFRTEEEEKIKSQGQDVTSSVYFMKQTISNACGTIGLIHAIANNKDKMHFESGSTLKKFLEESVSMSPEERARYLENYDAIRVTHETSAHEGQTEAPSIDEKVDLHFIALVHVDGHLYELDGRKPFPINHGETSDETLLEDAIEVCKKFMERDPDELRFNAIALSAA
Briefly: Inhibitor specificity assay, UCH-L3. The format is biochemical. Particulars: Table 6; assayed with 100 μM inhibitor, ubiquitin-AMC substrate.

In data set [3] the target is T1, SARS-CoV PLpro. The format is biochemical.
Data set [4] addresses T1, SARS-CoV PLpro. The format is biochemical. This is another data set of the same source.
Another data set has as its target T4, HAUSP (Homo sapiens, UniProt Q93009).
T4 construct: purchased Boston Biochem
In words: Inhibitor specificity assay, HAUSP. The format is biochemical. Particulars: Table 6; assayed with 100 μM inhibitor, ubiquitin-AMC substrate.

For the next data set, the target named is T5, hUSP18 (Homo sapiens, UniProt Q9UMW8).
T5 construct: purchased Boston Biochem
T5 sequence (Q9UMW8 1-372): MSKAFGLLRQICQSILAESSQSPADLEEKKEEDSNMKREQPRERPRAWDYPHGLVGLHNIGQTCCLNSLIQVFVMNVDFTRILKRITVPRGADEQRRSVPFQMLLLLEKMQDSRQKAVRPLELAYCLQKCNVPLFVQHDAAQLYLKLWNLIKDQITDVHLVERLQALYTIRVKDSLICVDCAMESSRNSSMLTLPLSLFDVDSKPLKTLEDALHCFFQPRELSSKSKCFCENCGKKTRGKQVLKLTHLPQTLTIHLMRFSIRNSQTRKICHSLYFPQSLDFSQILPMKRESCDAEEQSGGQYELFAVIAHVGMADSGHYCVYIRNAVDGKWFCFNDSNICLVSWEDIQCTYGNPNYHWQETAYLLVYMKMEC
Briefly: Inhibitor specificity assay, USP18. The format is biochemical. The note with it: Table 6; assayed with 100 μM inhibitor, ISG15-AMC substrate.

Where [5] appears, read: Severe acute respiratory syndrome coronavirus, Vero C1008.
Where [6] appears, read: Severe acute respiratory syndrome coronavirus, Vero C1008, 48 h, read-out: EC50 of antiviral activity.
Where [7] appears, read: read-out: IC50 (μM), enzyme inhibitory activity.

T4 sequence (Q93009 whole entry): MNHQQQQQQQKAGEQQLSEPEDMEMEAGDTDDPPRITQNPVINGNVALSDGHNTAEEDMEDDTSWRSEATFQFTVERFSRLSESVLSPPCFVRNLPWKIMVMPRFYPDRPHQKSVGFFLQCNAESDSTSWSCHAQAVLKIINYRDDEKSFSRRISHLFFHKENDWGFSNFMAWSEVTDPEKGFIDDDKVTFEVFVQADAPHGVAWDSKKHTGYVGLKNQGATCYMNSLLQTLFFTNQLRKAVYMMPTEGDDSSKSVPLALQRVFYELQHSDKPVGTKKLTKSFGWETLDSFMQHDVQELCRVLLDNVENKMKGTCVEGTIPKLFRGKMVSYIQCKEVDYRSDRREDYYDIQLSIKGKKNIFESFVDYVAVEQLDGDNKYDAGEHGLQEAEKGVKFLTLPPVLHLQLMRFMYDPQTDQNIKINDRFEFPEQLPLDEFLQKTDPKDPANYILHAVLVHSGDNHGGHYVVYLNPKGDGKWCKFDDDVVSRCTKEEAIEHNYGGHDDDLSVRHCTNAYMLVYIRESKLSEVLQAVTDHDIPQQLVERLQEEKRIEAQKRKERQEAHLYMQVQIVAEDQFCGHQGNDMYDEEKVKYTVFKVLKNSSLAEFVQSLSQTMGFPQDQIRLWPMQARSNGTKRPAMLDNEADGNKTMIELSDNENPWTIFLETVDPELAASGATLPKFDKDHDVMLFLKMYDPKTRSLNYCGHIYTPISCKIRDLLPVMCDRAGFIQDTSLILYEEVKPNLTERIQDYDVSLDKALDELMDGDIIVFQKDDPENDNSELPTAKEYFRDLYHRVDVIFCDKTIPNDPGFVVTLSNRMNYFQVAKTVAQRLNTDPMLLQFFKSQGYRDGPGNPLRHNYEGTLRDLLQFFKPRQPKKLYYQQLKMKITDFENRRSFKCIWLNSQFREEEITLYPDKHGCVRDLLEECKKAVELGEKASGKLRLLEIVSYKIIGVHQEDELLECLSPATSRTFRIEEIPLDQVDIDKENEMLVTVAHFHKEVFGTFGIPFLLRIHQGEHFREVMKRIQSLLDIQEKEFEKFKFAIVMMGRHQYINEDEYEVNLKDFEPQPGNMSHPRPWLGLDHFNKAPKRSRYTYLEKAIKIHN

As to “5-Methylamino-2-methyl-N—[(R)-1-(1-naphthyl)ethyl]benzamide [Compound 2]”, the EC50 with SARS-CoV (Table 5, antiviral activity against SARS-CoV, highest concentration tested 50 uM, read-out: EC50) amounted to 6 ± 0.1 µM. `Cc1ccccc1C(=O)NC(C)c1ccc2ccccc2c1` (racemic) [Compound 1, 2-methyl-N-[1-(2-naphthyl)ethyl]benzamide] showed an EC50 with SARS-CoV (setting [5]) greater than 50 µM. Further, the inhibition at 20 µM on SARS-CoV PLpro [1] was greater than 35%. At SARS-CoV PLpro [2], `CCC(NC(=O)c1ccccc1C)c1ccc2ccccc2c1` (racemic) [Compound 14, 2-Methyl-N-[1-(2-naphthyl)propyl]benzamide] came in with an IC50 greater than 200 µM. Consider `Cc1ccc(N)cc1C(=O)NC(C)c1ccnc2ccccc12` (racemic) [Compound 50], for which, on SARS-CoV PLpro [2], it took 1.85 µM to reach half-maximal inhibition (IC50). Turning to `Cc1cc([N+](=O)[O-])ccc1C(=O)NC(C)c1ccnc2ccccc12` (racemic) [Compound 51], the IC50 against SARS-CoV PLpro [2] was found to be 3.5 µM. On the same count and under the same terms, in the case of `Cc1cc(N)ccc1C(=O)NC(C)c1ccnc2ccccc12` (racemic) [Compound 52] it was 2.3 µM. In the case of `Cc1ccccc1C(=O)N[C@@H](C)c1ccc2ccccc2c1` [Compound 1a], the inhibition at 100 µM on SARS-CoV PLpro [2] came out at 14%. With `Cc1ccccc1C(=O)N[C@H](C)c1ccc2ccccc2c1` [Compound 1b, 2-Methyl-N—[(R)-1-(2-naphthyl)ethyl]benzamide], the inhibition at 100 µM at SARS-CoV PLpro [2] is greater than 90%. The compound also yielded an EC50 with SARS-CoV (setting [5]) greater than 50 µM. Take `C[C@@H](NC(=O)c1ccccc1Cl)c1ccc2ccccc2c1` [Compound 3, 2-Chloro-N—[(R)-1-(2-naphthyl)ethyl]benzamide]: at SARS-CoV PLpro [2], inhibition was half-maximal at 14.5 ± 0.9 µM (IC50) and the “fold decrease in inhibitory potency compared to 1b” value worked out at 2 fold. In addition, the EC50 in the data set on SARS-CoV (setting [5]) is greater than 50 µM. The compound `CCc1ccccc1C(=O)N[C@H](C)c1ccc2ccccc2c1` [Compound 4, 2-Ethyl-N—[(R)-1-(2-naphthyl)ethyl]benzamide] had an IC50 against SARS-CoV PLpro [2] greater than 200 µM. Regarding `Cc1cccc(C(=O)N[C@H](C)c2ccc3ccccc3c2)c1` [Compound 5a, 3-Methyl-N—[(R)-1-(2-naphthyl)ethyl]benzamide], the EC50 with SARS-CoV (setting [5]) was greater than 50 µM. Take `C[C@@H](NC(=O)c1ccccc1O)c1ccc2ccccc2c1` [Compound 5g, 2-Hydroxy-N—[(R)-1-(2-naphthyl)ethyl]benzamide]: the IC50 on SARS-CoV PLpro [2] was greater than 200 µM. With `Cc1ccccc1C(=O)N[C@H](C)c1cccc2ccccc12` [Compound 5h, 2-Methyl-N—[(R)-1-(1-naphthyl)ethyl]benzamide], the EC50 was 10 ± 1.2 µM with SARS-CoV (setting [5]) and 10 to 15 µM in the data set on SARS-CoV (setting [6]). Besides, the IC50 on hUCH-L1 and on hUCH-L3 was greater than 100 µM each time. For the same compound, in the data set on Vero E6 cells, the “toxicity in Vero E6 cells” value was “without toxicity up to the highest concentration tested”. As to `Cc1ccc([N+](=O)[O-])cc1C(=O)N[C@H](C)c1cccc2ccccc12` [Compound 5i, 2-Methyl-5-nitro-N—[(R)-1-(1-naphthyl)ethyl]benzamide], on SARS-CoV PLpro [2], the 50% inhibitory concentration (IC50) was 7.3 ± 0.9 µM and the “fold decrease in activity compared to 5h” value is listed as roughly 3 fold. For the same compound, the EC50 with SARS-CoV (setting [5]) is greater than 50 µM. `C[C@@H](NC(=O)c1ccc(NC(=O)OC(C)(C)C)cc1)c1ccc2ccccc2c1` [Compound 8, 4-N^0-tert-Butoxycarbonylamino-N—[(R)-1-(2-naphthyl)ethyl]-benzamide] yielded an IC50 on SARS-CoV PLpro [2] greater than 200 µM. On to `Cc1ccccc1C(=O)NC(c1ccccc1)c1ccc2ccccc2c1` (stereo not shown) [Compound 17, 2-Methyl-N-[1-(2-naphthyl)benzyl]benzamide], for which, at SARS-CoV PLpro [2] (setting [7]), the IC50 is greater than 200 µM. For `Cc1ccc(N)cc1C(=O)N[C@H](C)c1cccc2ccccc12` [Compound 24, 5-Amino-2-methyl-N—[(R)-1-(1-naphthyl)ethyl]benzamide], the mode of inhibition result on SARS-CoV PLpro [3] is “competitive inhibitor”. Besides, the “PLpro activity recovered after dialysis” value at SARS-CoV PLpro [4] is listed as “Approximately 25%”. Besides, the IC50 against hUCH-L1, against hUCH-L3, against HAUSP and on hUSP18 was greater than 100 µM in each case. Moreover, in the data set on Vero E6 cells, the “toxicity in Vero E6 cells” value is on record as “without toxicity up to the highest concentration tested”. As to `CC(=O)Nc1ccc(C)c(C(=O)N[C@H](C)c2cccc3ccccc23)c1` [Compound 25, 5-N-Acetylamino-2-methyl-N—[(R)-1-(1-naphthyl)ethyl]benzamide], the IC50 was 2.64 ± 0.04 µM at SARS-CoV PLpro [2] (read-out: IC50); 2.64 ± 0.04 µM on SARS-CoV PLpro [2] (setting [7]); 2.6 µM on SARS-CoV PLpro [2] (read-out: IC50 values (μM) PLpro); greater than 100 µM at hUCH-L1; greater than 100 µM on hUCH-L3. Moreover, the EC50 was 13.1 ± 0.7 µM in the data set on SARS-CoV (setting [5]) and 10 to 15 µM in the data set with SARS-CoV (setting [6]). Besides, the “toxicity in Vero E6 cells” value with Vero E6 cells is reported as “without toxicity up to the highest concentration tested”. The compound `Cc1ccc(N)cc1C(=O)NC(C)(C)c1cccc2ccccc12` [Compound 29, 5-Amino-2-methyl-N-[1-methyl-1-(1-naphthyl)ethyl]benzamide] yielded an EC50 in the data set on SARS-CoV (setting [5]) greater than 50 µM. Consider `Cc1ccc(CNC(=O)OC(C)(C)C)cc1C(=O)N[C@H](C)c1cccc2ccccc12` [Compound 47, 5-N-tert-Butoxycarbonylmethylamino-2-methyl-N^0—[(R)-1-(1-naphthyl)ethyl]benzamide], for which the EC50 in the data set on SARS-CoV (setting [5]) was greater than 50 µM. Same read-out and setting: in the case of `CNCc1ccc(C)c(C(=O)N[C@H](C)c2cccc3ccccc23)c1` [Compound 49] it was 5.2 ± 0.3 µM.

In turn, `COc1cccc(CNC(=O)C2CCN([C@@H](C)c3ccc4ccccc4c3)CC2)c1` [Compound 61] gave an IC50 at SARS-CoV PLpro [2] of 13.2 ± 0.6 µM. Further, the EC50 in the data set with SARS-CoV (setting [5]) is 12 µM. `COc1cccc(CNC(=O)C2CCN([C@H](C)c3ccc4ccccc4c3)CC2)c1` [Compound 62] came in with an IC50 against SARS-CoV PLpro [2] of 5.8 ± 0.1 µM. On to `COc1ccc(CNC(=O)C2CCN([C@H](C)c3cccc4ccccc34)CC2)cc1` [Compound 63], for which the IC50 on SARS-CoV PLpro [2] (read-out: IC50) stood at 0.34 µM. Also, the EC50 with SARS-CoV (setting [5]) was 10 µM. For `COc1cccc(CNC(=O)C2CCN([C@H](C)c3cccc4ccccc34)CC2)c1` [Compound 64], in that order: 0.34 µM and 8 µM. Turning to `COc1ccccc1CNC(=O)C1CCN([C@H](C)c2cccc3ccccc23)CC1` [Compound 67], on SARS-CoV PLpro [2] (read-out: IC50), the IC50 is 1.21 ± 0.04 µM. On to `C[C@@H](c1cccc2ccccc12)N1CCC(C(=O)NCc2ccc3c(c2)OCO3)CC1` [Compound 68], for which, on SARS-CoV PLpro [2] (read-out: IC50), the IC50 worked out at 0.56 µM. This compound returned an EC50 in the data set with SARS-CoV (setting [5]) of 3 µM. In the case of `C[C@H](c1cccc2ccccc12)N1CCC(C(=O)NCc2ccc3c(c2)OCO3)CC1` [Compound 69], the EC50 in the data set on SARS-CoV (setting [5]) turned out to be 3 µM.
